From patent publication US11401271B2, “Fused heterocyclic compound, pyrazole-ring-containing fused heterocyclic compound, agricultural composition containing thereof, and method of using the composition” (SOUTH CHINA AGRICULTURAL UNIVERSITY, priority 2017, dated 2022)
Like-named read-outs stand apart in the source and are kept apart here.

Experiments:
Assay type in all cases: in vivo
Solenopsis invicta = experiment: whole plant or invertebrate; details: Solenopsis invicta, water test tube poison-feeding
Outline: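 Mortality (%) of Solenopsis invicta, computed against live counts in control tubes, was recorded 24 h and 72 h after treatment at 25 °C. Compound was offered by oral feeding in test tubes at 100 ppm, diluted from a 10 g/L DMSO stock into water with 5% honey and 0.05% Tween-80.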

Plutella xylostella = experiment: whole plant or invertebrate; details: Plutella xylostella, read-out: Plutella xylostella Mortality (%) 500 ppm
Outline: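 Leaf immersion feeding test: 2nd-instar larvae (about 35 per vessel, 3 replicates) kept at 28° C. on 1.0 cm cabbage discs soaked 5 s in a 500 ppm solution with 0.05% Tween-80. Mortality after 24 h of exposure, calculated relative to live larvae in the Tween-80 control.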

Spodoptera exigua = experiment: whole plant or invertebrate; details: Spodoptera exigua, 24 h, read-out: Spodoptera exigua Mortality (%) 500 ppm
Outline: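 Leaf immersion feeding: second-instar larvae (about 35 per vessel, triplicate) kept at 28° C on discs treated with 500 ppm test solution in 0.05% Tween-80. Mortality at 24 h, calculated relative to surviving larvae in the solvent control.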

Bombyx mori L. = experiment: Toxicity test on 2nd-instar larvae of Bombyx mori L., leaf immersion feeding method; details: 1000 ppm, 24 hours
Outline: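 Second-instar silkworm larvae (~35 per vessel, 3 replicates) fed mulberry leaves dipped 5 s in 1000 ppm compound (0.05% Tween-80; DMSO stock diluted), held at 25 °C. Deaths counted after 24 hours; mortality % corrected against Tween-80 control survivors.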

Apis cernan = experiment: Toxicity test on adult worker bees of Apis cernan, small beaker method; details: 500 ppm, 48 hours
Outline: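 Same-size adult Apis cernan workers, collected the test morning, exposed in groups of 15 to cotton soaked with 500 ppm test liquid (small beaker method). Kept sealed in a dark climate box; live and dead bees counted after 48 h.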

Aphis craccivora = experiment: whole plant or invertebrate; details: Aphis craccivora, 24 h, read-out: Aphis craccivora Mortality (%) 500 ppm
Outline: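 Mortality scored 24 h after treatment as the reduction in live aphids versus a 0.05% Tween-80 control; three replicates, 23° C. Treatment was a 5 s immersion of wingless adults on bean sprouts in 500 ppm test solution containing 0.05% Tween-80, followed by air-drying.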

[1] = 24 h, read-out: Solenopsis invicta Mortality (%) 100 ppm 24 h, 100 ppm, 24 h
[2] = 72 h, read-out: Solenopsis invicta Mortality (%) 100 ppm 72 h, 100 ppm, 72 h

Compound	mortality at 100 ppm (Solenopsis invicta; [1]) [%]	mortality at 100 ppm (Solenopsis invicta; [2]) [%]	mortality at 500 ppm (Plutella xylostella) [%]	mortality at 500 ppm (Spodoptera exigua) [%]	Toxicity determination Bombyx mori L. Mortality (%) (Bombyx mori L.)	Toxicity determination Apis cernan Mortality (%) (Apis cernan)	mortality at 500 ppm (Aphis craccivora) [%]
C=CC1(CC(F)(F)F)Nc2cc(C#N)nn2-c2c(Cl)cc(C(F)(F)F)cc21 (stereo not shown) [Compound C2]	26	93	100	90	5	10	100
C[S+]([O-])c1c(C#N)nn2c1NC(CO)(CC#N)c1cc(C(F)(F)F)cc(Cl)c1-2 (stereo not shown) [Compound C26]	20	80	89	90	4	4	100
C=CC1(C(F)(F)F)Nc2c([S+]([O-])C(F)(F)F)c(C#N)nn2-c2c(Cl)cc(C(F)(F)F)cc21 (stereo not shown) [Compound C15]	29	90	89	100	8	7	100
N#CCC1(CO)Nc2c([S+]([O-])C(F)(F)F)c(C#N)nn2-c2c(Cl)cc(C(F)(F)F)cc21 (stereo not shown) [Compound C24]	36	100	100	100	11	10	100
CC(=O)N1c2c(Br)c(C#N)nn2-c2ccccc2C1(C)C [Compound A4]	20	87	86	100	10	8	100
CNC(=O)Nc1ccc2c(c1)-n1cc(C#N)c(C#N)c1NC2(C#N)C#N [Compound B12]	40	100	100	100	5	6	100
CC1(C)Nc2cc(C#N)nn2-c2ccccc21 [Compound A1, 5,5-dimethyl-4,5-dihydropyrazole[1,5-α]quinazoline-2-cyano]	20	87	95	90	9	12	100
C=CC1(CCl)Nc2c([S+]([O-])C(F)(F)F)c(C#N)nn2-c2c(Cl)cc(C(F)(F)F)cc21 (stereo not shown) [Compound C13]	32	100	100	100	12	10	100
CC1(C)Nc2c(N)c(C#N)nn2-c2ccccc21 [Compound A15]	24	100	100	100	8	5	100
CC1(C)Nc2c(Br)c(C(=O)N3CCCCC3)nn2-c2ccccc21 [Compound A7]	20	100	100	100	6	6	100
N#Cc1cnn2c1NC(N)(CN)c1ccc(Cl)cc1-2 (stereo not shown) [Compound A23]	34	100	100	100	0	5	100
COC(=O)CC1(C(=O)OC)Nc2c([S+]([O-])C(F)(F)F)c(C#N)nn2-c2c(Cl)cc(C(F)(F)F)cc21 (stereo not shown) [Compound C37]	20	100	100	100	6	8	100
Nc1ccc2c(c1)-n1nc(C(F)(F)F)c(-c3ccc(F)cc3)c1NC2(C(F)(F)F)C(F)(F)F [Compound A12]	44	100	100	100	13	12	100
CC[S+]([O-])c1c(C#N)nn2c1NC(CO)(CC#N)c1cc(C(F)(F)F)cc(Cl)c1-2 (stereo not shown) [Compound C25]	25	71	92	97	3	0	86
N#CCC1(C(N)=O)Nc2c([S+]([O-])C(F)(F)F)c(C#N)nn2-c2c(Cl)cc(C(F)(F)F)cc21 (stereo not shown) [Compound C32]	25	100	100	90	6	9	95
Nc1cc2n(n1)-c1cnccc1C(F)(CC(F)(F)F)N2 (stereo not shown) [Compound A36]	44	100	100	100	3	0	100
